In PubChem BioAssay (NCI):
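96-well plates; 48 h exposure; 5 concentrations. Endpoints by linear interpolation between flanking doses. Not reached: highest tested concentration assigned. GI50 marks 50% less growth. Definition used: TGI = concentration required for complete inhibition of growth.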

Experiments:
Test in all cases: NCI anticancer screen, dose series, 48 h; in the data active = GI50 below about 0.43 µM; inactive = the rest
HOP-62 NSCLC = system: HOP-62 NSCLC
SR leukemia = system: SR leukemia
NCI-H226 lung = system: NCI-H226 lung
A549 NSCLC = system: A549 NSCLC
NCI-H460 lung = system: NCI-H460 lung
ACHN renal = system: ACHN renal
SW-620 colon = system: SW-620 colon
MDA-MB-435 = system: MDA-MB-435
SF-295 CNS = system: SF-295 CNS
MALME-3M melanoma = system: MALME-3M melanoma
CCRF-CEM leukemia = system: CCRF-CEM leukemia
HL-60(TB) leukemia = system: HL-60(TB) leukemia
LOX IMVI melanoma = system: LOX IMVI melanoma
UO-31 renal = system: UO-31 renal
BT-549 breast = system: BT-549 breast
HS 578T breast = system: HS 578T breast
HCC-2998 colon = system: HCC-2998 colon
OVCAR-4 ovarian = system: OVCAR-4 ovarian
U251 CNS = system: U251 CNS
HT29 colon = system: HT29 colon
HCT-116 colon = system: HCT-116 colon
UACC-257 melanoma = system: UACC-257 melanoma
SF-268 CNS = system: SF-268 CNS
CAKI-1 renal = system: CAKI-1 renal
OVCAR-8 ovarian = system: OVCAR-8 ovarian
MOLT-4 leukemia = system: MOLT-4 leukemia
EKVX NSCLC = system: EKVX NSCLC
IGROV1 ovarian = system: IGROV1 ovarian
KM12 colon = system: KM12 colon
UACC-62 melanoma = system: UACC-62 melanoma

CC(=O)c1ccc(Nc2nc(SCCC(C)C)nc(-c3ccc(F)cc3)c2C#N)cc1
18.8 µM: TGI (EKVX NSCLC)
37.9 µM: TGI (IGROV1 ovarian)
25.7 µM: TGI (LOX IMVI melanoma) | TGI (UO-31 renal)
> 100 µM: TGI (SR leukemia) | TGI (A549 NSCLC) | TGI (SW-620 colon) | TGI (MDA-MB-435) | TGI (MALME-3M melanoma) | TGI (CCRF-CEM leukemia) | TGI (HL-60(TB) leukemia) | TGI (BT-549 breast) | TGI (HCC-2998 colon) | TGI (HT29 colon) | TGI (UACC-257 melanoma) | TGI (MOLT-4 leukemia) | TGI (KM12 colon) | TGI (UACC-62 melanoma)
inactive: GI50 (SR leukemia) > 100 µM | GI50 (NCI-H226 lung) 3.82 µM | GI50 (A549 NSCLC) 3.85 µM | GI50 (NCI-H460 lung) 3.24 µM | GI50 (ACHN renal) 2.07 µM | GI50 (SW-620 colon) 16.7 µM | GI50 (MDA-MB-435) 12.9 µM | GI50 (SF-295 CNS) 2.18 µM | GI50 (MALME-3M melanoma) 32.6 µM | GI50 (CCRF-CEM leukemia) > 100 µM | GI50 (HL-60(TB) leukemia) > 100 µM | GI50 (LOX IMVI melanoma) 4.41 µM | GI50 (UO-31 renal) 5.01 µM | GI50 (BT-549 breast) 12.7 µM | GI50 (HS 578T breast) 3.06 µM | GI50 (HCC-2998 colon) 21 µM | GI50 (OVCAR-4 ovarian) 7.2 µM | GI50 (U251 CNS) 2.63 µM | GI50 (HT29 colon) 5.53 µM | GI50 (HCT-116 colon) 3.51 µM | GI50 (UACC-257 melanoma) > 100 µM | GI50 (SF-268 CNS) 4.85 µM | GI50 (CAKI-1 renal) 3.75 µM | GI50 (OVCAR-8 ovarian) 5.77 µM | GI50 (MOLT-4 leukemia) > 100 µM | GI50 (EKVX NSCLC) 3.05 µM | GI50 (IGROV1 ovarian) 10.6 µM | GI50 (KM12 colon) 45.5 µM | GI50 (UACC-62 melanoma) 30.2 µM
97.4 µM: TGI (SF-268 CNS)
22.4 µM: TGI (NCI-H226 lung)
7.87 µM: TGI (U251 CNS)
93.3 µM: TGI (OVCAR-4 ovarian)
25.5 µM: TGI (OVCAR-8 ovarian)
12.5 µM: TGI (NCI-H460 lung)
10.1 µM: TGI (HS 578T breast)
4.56 µM: TGI (ACHN renal)
16.3 µM: TGI (HOP-62 NSCLC)
13.7 µM: TGI (HCT-116 colon)
5.13 µM: TGI (SF-295 CNS)
23.5 µM: TGI (CAKI-1 renal)
